Experimental data taken from patent publication US12624008B2, “4-((6-oxopyrimidin-1(6H)-yl)methyl)benzoic acid as an inducer of Z A1AT secretion for treating AATD” (CENTESSA PHARMACEUTICALS (UK) LIMITED, priority 2020, dated 2026).

Tested on: Z A1AT
Test: Z A1AT cell secretion assay using HEK-Z cells (ELISA of supernatant)
Assay type: cell-based, human
Conditions: HEK-Z cells, 10, 33, 100 and 333 nM, 48 h, FIG. 1 y-axis in ng/ml
Protocol: HEK-Z cells, a human embryonic kidney cell line stably transfected with the human Z AAT gene, were plated into 96 well plates (3.0×10^5 cells/ml with 200 μl of media/well) overnight at 37° C. in a humidified atmosphere containing 5% CO2. Following incubation cells were washed with 200 μl serum-free media three times and media was replaced with treatments in quadruplicate using vehicle, 10 μM suberanilohydroxamic acid (SAHA) or 4-((6-oxopyrimidin-1(6H)-yl)methyl)benzoic acid (at concentrations of 10, 33, 100 and 333 nM) for 48 h in a 37° C. incubator in a final volume of 200 μl. At the end of the incubation step the supernatants were removed from the wells, centrifuged at 1000×g at 4° C. for 10 min and were assayed for Z A1AT levels by ELISA (Human Serpin A1/α1-antitrypsin duo set ELISA, R&D Systems, DY1268) per manufacturer's instructions.
Briefly, a 96 well plate was coated with human A1AT capture antibody overnight at room temperature (1:180 dilution from stock, 100 μl final volume/well). […] After which, 50 μl stop solution (2M H2SO4) was added and optical density (OD) of each well was read at 450 nm with 570 nm blank subtracted from each well using a microplate reader. A 4 parameter logistic curve was constructed using GraphPad Prism 8 and Z A1AT concentrations were determined in each sample by interpolation from a standard curve and multiplying by the appropriate dilution factor.

O=C(O)c1ccc(Cn2cnccc2=O)cc1 [4-((6-oxopyrimidin-1(6H)-yl)methyl)benzoic acid]
secretion of Z A1AT (concentration of Z A1AT in the cell supernatant): increased in a dose dependent manner
